{
  "source": "patent EP0234431A2",
  "about": "“5-Hydroxydihydrofusarubin, a process for its preparation and its use for the preparation of a medicament” (HOECHST JAPAN LIMITED, priority 1986, dated 1987)",
  "key": {"[1]": {"test": "Solubility (physicochemical properties)", "method": "Physicochemical properties of 5-hydroxydihydrofusarubin (I) produced by the present invention are as follows: • (1) Appearance: Orange plates • (2) Molecular formula: C₁₅H₁₈O₇ • (3) Molecular weight: 310 • (4) Melting point: 192-193°C • (5) Optical rotation: -171.4 (in 0.06% acetone solution) • (6) Ultraviolet and visible absorption spectrum: in 95% ethanol solution: λ max (nm) (logε) 211(4.17), 245(4.08), 284(3.97), 359(3.88) • (7) Infrared absorption spectrum: The infrared absorption spectrum measured in potassium bromide tablet is shown in Fig. 1. • (8) ¹H-NMR: ¹H-NMR measured in deuteriumchloroform is shown in Fig. 2. Chemical shifts were assigned as shown below. [formula] • (9) ¹³C-NMR: ¹³C-NMR measured in deuteriumchloroform is shown in Fig. 3. Chemical shifts were assigned as shown below. [formula] • (10) Solubility: Soluble in chloroform, methylene chloride, ethyl acetate, acetone, ethanol or methanol. […] Solubility in water: Insoluble under acidic or neutral condition, and soluble under alkaline condition."}, "[2]": {"test_system": "Staphylococcus aureus FDA209PJC1", "test": "Antimicrobial test, agar plate-dilution method", "format": "cell-based", "method": "(§1) Minimum inhibitory concentrations (MIC) of 5-hydroxydihydrofusarubin (I) against bacteria and fungi were determined by the agar plate-dilution method."}, "[3]": {"test_system": "Streptococcus pneumoniae DP-1", "test": "Antimicrobial test, agar plate-dilution method", "format": "cell-based", "settings": "DP1", "method": "as §1"}, "[4]": {"test_system": "Saccharomyces cereviciae ATCC 9763", "test": "Antimicrobial test, agar plate-dilution method", "format": "cell-based", "settings": "ATCC9763", "method": "as §1"}, "[5]": {"test_system": "Bacillus subtilis ATCC 6633", "test": "Antimicrobial test, agar plate-dilution method", "format": "cell-based", "settings": "ATCC6633", "method": "as §1"}, "[6]": {"test_system": "Candida albicans C-a-30", "test": "Antimicrobial test, agar plate-dilution method", "format": "cell-based", "settings": "CA30", "method": "as §1"}, "[7]": {"test_system": "mouse leukemia L1210 cells", "test": "Antitumor test, growth inhibition of L1210 cells in suspension", "format": "cell-based", "settings": "growth of mouse leukemia L1210 cells in suspension (1 x 10⁶/mouse)", "method": "An antitumor test was carried out for 5-hydroxy dihydrofusarubin. Half value (IC₅₀) inhibiting growth of mouse leukemia L1210 cells in suspension (1 x 10⁶/mouse) was as follows: […]"}},
  "data": [
    {"smiles": "COc1cc(O)c2c(c1O)C(O)C1CC(C)(O)OCC1C2=O", "note": "(stereo not shown) [5-Hydroxydihydrofusarubin]", "values": [
      {"measurement": "Solubility", "setting": "[1]; in chloroform, methylene chloride, ethyl acetate, acetone, ethanol or methanol", "result": "Soluble"},
      {"measurement": "Solubility", "setting": "[1]; in hexane or petroleum ether", "result": "Sparingly soluble"},
      {"measurement": "Solubility in water", "setting": "[1]; under acidic or neutral condition", "result": "Insoluble"},
      {"measurement": "Solubility in water", "setting": "[1]; under alkaline condition", "result": "soluble"},
      {"measurement": "MIC", "setting": "[2]", "result": 100, "unit": "µg/mL"},
      {"measurement": "MIC", "setting": "[3]", "result": 50, "unit": "µg/mL"},
      {"measurement": "MIC", "setting": "[4]", "result": 50, "unit": "µg/mL"},
      {"measurement": "MIC", "setting": "[5]", "result": 100, "unit": "µg/mL"},
      {"measurement": "MIC", "setting": "[6]", "result": 100, "unit": "µg/mL"},
      {"measurement": "IC50", "setting": "[7]", "result": "9.4 ± 0.9", "unit": "µg/mL"}
    ]}
  ]
}
